Results reported in patent publication US12509444B2, “Compounds and methods for CD73 modulation and indications therefor” (Plexxikon Inc., priority 2019, dated 2025).

Experiments:
[1] = target: T1, Human CD73 (amino acid residues 27-549) (Homo sapiens, UniProt P21589); test: CD73 enzymatic assay (luciferase-based indirect assay, CellTiter-Glo); type: biochemical; details: 0.4 nM CD73, 150 μM AMP, 1 hour at room temperature
T1 construct: Human CD73 (amino acid residues 27-549); His tag (N); made in house; host or cells: E. coli
T1 sequence (P21589 27-549): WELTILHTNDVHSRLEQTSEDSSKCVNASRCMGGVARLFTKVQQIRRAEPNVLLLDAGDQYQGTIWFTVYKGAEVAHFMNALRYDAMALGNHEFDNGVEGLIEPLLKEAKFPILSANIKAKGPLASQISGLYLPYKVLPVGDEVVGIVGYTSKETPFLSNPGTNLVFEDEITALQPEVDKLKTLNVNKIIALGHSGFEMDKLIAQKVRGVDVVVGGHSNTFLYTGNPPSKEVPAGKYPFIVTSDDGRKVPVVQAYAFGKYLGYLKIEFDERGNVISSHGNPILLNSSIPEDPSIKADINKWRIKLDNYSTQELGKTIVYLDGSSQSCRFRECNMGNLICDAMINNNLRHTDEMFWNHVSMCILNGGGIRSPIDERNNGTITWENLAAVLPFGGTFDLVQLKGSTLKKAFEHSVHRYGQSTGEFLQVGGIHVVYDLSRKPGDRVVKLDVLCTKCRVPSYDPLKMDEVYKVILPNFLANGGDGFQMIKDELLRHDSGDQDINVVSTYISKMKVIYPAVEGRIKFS
How it was run: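 His-tagged human CD73 (27-549) from E. coli, 0.4 nM, with 150 μM AMP in 50 mM HEPES pH 7.4, 0.01% Tween 20; 1 h at room temperature. AMP remaining read by CellTiter-Glo 2.0 luminescence with 1 μM final ATP after 30 min. IC50 from nonlinear regression of % inhibition.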

[2] = target: T2, human CD73 (Homo sapiens, UniProt P21589); test: Inhibitor activity against CD73 in cell based assay (CD73 expressing CHO-K1 cells); details: CHO-K1 cells expressing human CD73, 150 μM AMP, 4 hours of incubation; read-out: CHO-K1 CELL VARIANT: CD73 IC50
T2 construct: expressed in transfected cells
T2 sequence (P21589 27-549): T1 sequence (P21589 27-549)
How it was run: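 Stably transfected CHO-K1 cells expressing human CD73 (1×10^4/well) incubated 4 h with compound (8-point 1:3 titration, top 10 μM final, 0.2% DMSO) and 150 μM AMP. Residual AMP in supernatant measured by CellTiter-Glo luminescence with 1 μM ATP after 30 min at room temperature; IC50 by nonlinear regression of percent inhibition vs high/low controls.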

SMILES | IC50 [1] [µM] | IC50 [2] [µM]
Cc1cccc(F)c1C(=O)N[C@H]1CC[C@H](NC(=O)O[C@@H]2CCN(c3cn[nH]c(=O)c3Cl)C2)CC1 [P-0268, (R)-1-(5-chloro-6-oxo-1,6-dihydropyridazin-4-yl)pyrrolidin-3-yl ((1r,4R)-4-(2-fluoro-6-methylbenzamido)cyclohexyl) carbamate] | 0.001 to 10 | 0.001 to 10
O=C(N[C@H]1CC[C@H](NC(=O)C2CCC2)CC1)O[C@@H]1CCN(c2cn[nH]c(=O)c2Cl)C1 [P-0258, (R)-1-(5-chloro-6-oxo-1,6-dihydropyridazin-4-yl)pyrrolidin-3-yl ((1r,4R)-4-(cyclobutanecarboxamido)cyclohexyl)carbamate] | 0.001 to 10 | 0.001 to 10
Cc1ccccc1S(=O)(=O)N[C@H]1CC[C@H](NC(=O)O[C@@H]2CCN(c3cn[nH]c(=O)c3Cl)C2)CC1 [P-0250, (R)-1-(5-chloro-6-oxo-1,6-dihydropyridazin-4-yl)pyrrolidin-3-yl ((1r,4R)-4-((2-methylphenyl)sulfonamido)cyclohexyl)carbamate] | 0.001 to 10 | 0.001 to 10
O=C(NC1CC2CC2C1)O[C@@H]1CCN(c2cn[nH]c(=O)c2Cl)C1 (stereo partly drawn) [P-0385, (R)-1-(5-chloro-6-oxo-1,6-dihydropyridazin-4-yl)pyrrolidin-3-yl bicyclo[3.1.0]hexan-3-ylcarbamate] | 0.001 to 10 | 0.001 to 10
O=C(N[C@H]1CC[C@H](NS(=O)(=O)c2ccsc2)CC1)O[C@@H]1CCN(c2cn[nH]c(=O)c2Cl)C1 [P-0299, (R)-1-(5-chloro-6-oxo-1,6-dihydropyridazin-4-yl)pyrrolidin-3-yl ((1r,4R)-4-(thiophene-3-sulfonamido)cyclohexyl) carbamate] | 0.001 to 10 | 0.001 to 10
O=C(N[C@H]1CC[C@H](NC(=O)C2CC2)CC1)O[C@@H]1CCN(c2cn[nH]c(=O)c2Cl)C1 [P-0257, (R)-1-(5-chloro-6-oxo-1,6-dihydropyridazin-4-yl)pyrrolidin-3-yl ((1r,4R)-4-(cyclopropanecarboxamido)cyclohexyl)carbamate] | 0.001 to 10 | 0.001 to 10
O=C(NCC1CCCCC1)O[C@@H]1CCN(c2cn[nH]c(=O)c2Cl)C1 [P-0233, (R)-1-(5-chloro-6-oxo-1,6-dihydropyridazin-4-yl)pyrrolidin-3-yl (cyclohexylmethyl)carbamate] | 0.001 to 10 | 0.001 to 10
Cn1ncc(N2CC[C@@H](OC(=O)N[C@H]3CC[C@H](NS(=O)(=O)C4CC4)CC3)C2)c(Cl)c1=O [P-0227, (R)-1-(5-chloro-1-methyl-6-oxo-1,6-dihydropyridazin-4-yl)pyrrolidin-3-yl ((1r,4R)-4-(cyclopropanesulfonamido)cyclohexyl)carbamate] | 0.001 to 10 | 0.001 to 10
COC(=O)[C@H]1CC[C@@H](NC(=O)O[C@@H]2CCN(c3cn[nH]c(=O)c3Cl)C2)CC1 [P-0179, methyl (1S,4s)-4-(((((R)-1-(5-chloro-6-oxo-1,6-dihydropyridazin-4-yl)pyrrolidin-3-yl)oxy)carbonyl)amino) cyclohexane-1-carboxylate] | 0.001 to 10 | 0.001 to 10
NC1CCC(NC(=O)O[C@@H]2CCN(c3cn[nH]c(=O)c3Cl)C2)CC1 (stereo partly drawn) [P-0125, (R)-1-(5-chloro-6-oxo-1,6-dihydropyridazin-4-yl)pyrrolidin-3-yl (4-aminocyclohexyl)carbamate] | 0.001 to 10 | 0.001 to 10
N#Cc1c(N2CC[C@@H](NC(=O)NC3CCCC3)C2)cn[nH]c1=O [P-0064, (R)-1-(1-(5-cyano-6-oxo-1,6-dihydropyridazin-4-yl)pyrrolidin-3-yl)-3-cyclopentylurea] | 0.001 to 10 | 10 to 100
O=C(N[C@H]1CC[C@H](NS(=O)(=O)c2ccc(F)cc2)CC1)O[C@@H]1CCN(c2cn[nH]c(=O)c2Cl)C1 [P-0175, (R)-1-(5-chloro-6-oxo-1,6-dihydropyridazin-4-yl)pyrrolidin-3-yl ((1r,4R)-4-((4-fluorophenyl)sulfonamido)cyclohexyl)carbamate] | 0.001 to 10 | 0.001 to 10
O=C(CO)NC1CCC(NC(=O)N[C@@H]2CCN(c3cn[nH]c(=O)c3Cl)C2)CC1 (stereo partly drawn) [P-0088, (R)-N-(4-(3-(1-(5-chloro-6-oxo-1,6-dihydropyridazin-4-yl)pyrrolidin-3-yl)ureido)cyclohexyl)-2-hydroxyacetamide] | 0.001 to 10 | 10 to 100
O=C(N[C@H]1CCN(C(=O)c2ccccc2)C1)O[C@@H]1CCN(c2cn[nH]c(=O)c2Cl)C1 [P-0342, (R)-1-(5-chloro-6-oxo-1,6-dihydropyridazin-4-yl)pyrrolidin-3-yl ((S)-1-benzoylpyrrolidin-3-yl)carbamate] | 0.001 to 10 | 10 to 100
O=C(N[C@H]1CC[C@H](NS(=O)(=O)NC2CCCC2)CC1)O[C@@H]1CCN(c2cn[nH]c(=O)c2Cl)C1 [P-0153, (R)-1-(5-chloro-6-oxo-1,6-dihydropyridazin-4-yl)pyrrolidin-3-yl ((1r,4R)-4-((N-cyclopentylsulfamoyl)amino)cyclohexyl)carbamate] | 0.001 to 10 | 0.001 to 10
O=C(N[C@H]1CC[C@H](NC(=O)c2ccccc2)CC1)O[C@@H]1CCN(c2cn[nH]c(=O)c2Cl)C1 [P-0184, (R)-1-(5-chloro-6-oxo-1,6-dihydropyridazin-4-yl)pyrrolidin-3-yl ((1r,4R)-4-benzamidocyclohexyl) carbamate] | 0.001 to 10 | 0.001 to 10

The next lines start with the values.

IC50 [1] [µM] | IC50 [2] [µM] | SMILES
0.001 to 10 | 0.001 to 10 | O=C(NC1CCN(C(=O)c2ccc(C(F)(F)F)nc2)CC1)O[C@@H]1CCN(c2cn[nH]c(=O)c2Cl)C1 [P-0419, (R)-1-(5-chloro-6-oxo-1,6-dihydropyridazin-4-yl)pyrrolidin-3-yl (1-(6-(trifluoromethyl)nicotinoyl)piperidin-4-yl)carbamate]
0.001 to 10 | 0.001 to 10 | CC1(C)C(NC(=O)O[C@@H]2CCN(c3cn[nH]c(=O)c3Cl)C2)C1(C)C [P-0517, (R)-1-(5-chloro-6-oxo-1,6-dihydropyridazin-4-yl)pyrrolidin-3-yl (2,2,3,3-tetramethylcyclopropyl) carbamate]
0.001 to 10 | 0.001 to 10 | O=C(NC12CCC(F)(CC1)C2)O[C@@H]1CCN(c2cn[nH]c(=O)c2Cl)C1 [P-0448, (R)-1-(5-chloro-6-oxo-1,6-dihydropyridazin-4-yl)pyrrolidin-3-yl (4-fluorobicyclo[2.2.1]heptan-1-yl)carbamate]
0.001 to 10 | 0.001 to 10 | O=C(NC1CCN(C(=O)Nc2cc(F)ccc2F)CC1)O[C@@H]1CCN(c2cn[nH]c(=O)c2Cl)C1 [P-0491, (R)-1-(5-chloro-6-oxo-1,6-dihydropyridazin-4-yl)pyrrolidin-3-yl (1-((2,5-difluorophenyl)carbamoyl)piperidin-4-yl)carbamate]
0.001 to 10 | 0.001 to 10 | O=C(N[C@H]1CCCC(F)(F)C1)O[C@@H]1CCN(c2cn[nH]c(=O)c2Cl)C1 [P-0511, (R)-1-(5-chloro-6-oxo-1,6-dihydropyridazin-4-yl)pyrrolidin-3-yl ((S)-3,3-difluorocyclohexyl)carbamate]
0.001 to 10 | 0.001 to 10 | CC1(NC(=O)O[C@@H]2CCN(c3cnn(CCO)c(=O)c3Cl)C2)CC(F)(F)C1 [P-0439, (R)-1-(5-chloro-1-(2-hydroxyethyl)-6-oxo-1,6-dihydropyridazin-4-yl)pyrrolidin-3-yl (3,3-difluoro-1-methylcyclobutyl)carbamate]
0.001 to 10 | 0.001 to 10 | CCC1(NC(=O)O[C@@H]2CCN(c3cn[nH]c(=O)c3Cl)C2)CCCC1 [P-0408, (R)-1-(5-chloro-6-oxo-1,6-dihydropyridazin-4-yl)pyrrolidin-3-yl (1-ethylcyclopentyl)carbamate]
0.001 to 10 | 0.001 to 10 | N#CC12CC(NC(=O)O[C@@H]3CCN(c4cn[nH]c(=O)c4Cl)C3)(C1)C2 [P-0427, (R)-1-(5-chloro-6-oxo-1,6-dihydropyridazin-4-yl)pyrrolidin-3-yl (3-cyanobicyclo[1.1.1]pentan-1-yl)carbamate]
0.001 to 10 | 0.001 to 10 | O=C(NC1CCN(C(=O)Nc2ncccc2F)CC1)O[C@@H]1CCN(c2cn[nH]c(=O)c2Cl)C1 [P-0438, (R)-1-(5-chloro-6-oxo-1,6-dihydropyridazin-4-yl)pyrrolidin-3-yl (1-((3-fluoropyridin-2-yl)carbamoyl)piperidin-4-yl)carbamate]
0.001 to 10 | 0.001 to 10 | CN([C@H]1CC[C@H](NC(=O)O[C@@H]2CCN(c3cn[nH]c(=O)c3Cl)C2)CC1)S(C)(=O)=O [P-0394, (R)-1-(5-chloro-6-oxo-1,6-dihydropyridazin-4-yl)pyrrolidin-3-yl ((1r,4R)-4-(N-methylmethylsulfonamido)cyclohexyl)carbamate]
